Assay [1] relates to Novikoff hepatoma. Kind of assay: Enhancement of tumor growth by aminotyrosine after dilute hepatoma cell challenge. The format is in vivo, rat. As to conditions: 1 mg i.p. daily for five days; ninth day following inoculation; four adult male rats; controls no tumor. How it is done:
In order to evaluate whether or not endogenous peroxidases play a role in the natural resistance to neoplastic growth, we injected some rats with a potent inhibitor of the cytotoxic activity of peroxidases and subsequently challanged the animals with a suspension of hepatoma cells.
Four adult male rats were injected i.p. with 1 mg of 3-aminotyrosine in 1 ml of water. Four control rats were injected with 1 ml of water. The following day all rats were injected with 1 ml of a dilute Novikoff hepatoma cell suspension; the number of cells being normally insufficient to produce tumor growth. On the same day, an additional 1 mg aminotyrosine was administered to the rats that received the inhibitor the previous day and this was repeated for three more days. The four control rats similarly received water injections.
On the ninth day following the inoculation with tumor, all rats were sacrificed and examined for the presence of tumor. No tumor was present in any of the control animals.

The subject of assay [2] is Con A-Lu-BSA labeled pig RBCs. Nature of the assay: Chemiluminescence of Con A-Lu-BSA labeled pig RBCs with exogenous hydrogen peroxide. The format is cell-based. How it is done: The luminol-bovine serum albumin (Lu-BSA) complex was made by mixing 2 mg luminol (5-amino-2, 3-dihydrophthalazine-1,4-dione), 0.2 ml of 2 mg BSA/ml PBS (pH 6.9), and 1.6 ml of PBS, pH 6.9. The preparation was then passed through a 0.22 μm nitrocellulose filter to remove insoluble luminol. Next, 0.2 ml of 2 mg Con A/ml of PBS, pH 6.9, was added to the filtrate. After gentle mixing, 10 μl of 25% glutaraldehyde were added. The solution was incubated in the refrigerator for 1 hour. To stop the conjugation, 100 mg of glycine was added to the solution. The solution was then pressed through a 48 ml column of dextran gel filtration beads equilibrated with PBS, pH 6.9. The gel exclusion size was greater than 5000 for globular molecules. The fractions were collected and tested for luminescent labeling activity.
One ml of supernatant of each 10 ml aliquot of 1:20 diluted RBCs was replaced with 1 ml of Con A-Lu-BSA solution as previously described. The preparation was incubated for 15 min. at 37° C. in a water-jacketedcell culture incubator. The cells were then pelleted in a clinical centrifuge, resuspended in PBS, and washed in the same manner two additional times. The washed cells were maintained at 4° C. until used the same day of preparation.
Following exposure to chemical or physical stressors, 100 μl of the RBC suspension was added to 500 μl of PBS, pH 7.4, containing 0.3% hydrogen peroxide, in a scintillation vial. To activate the sample, 100 μl of 0.1N NaOH were added to the vial in place in an ATP photometer (Integrating ATP Photometer Model 3000, Science Applications, San Diego, California 92121) The photometer was set to a dark count of 1 count/30 second at a sensitivity of 600 at room temperature (approximately 23° C.). All counts followed a 5 second delay period to allow for stabilization of the photomultiplier. The counts are reported as counts/30 sec.
All essays were run at room temperature. The post-collection age of those cells was 11-18 days and the cells were used the day of labeling. […] Pyruvate (1.43 mM), an autoxidizable substrate, doubled the CL of labeled cells.

Assay [3] relates to Novikoff hepatoma. Kind of assay: Effect of peroxidase inhibitor on ICCOPS-promoted hepatoma regression. It counts as in vivo, rat. How it is done: Four of the animals were also injected with 100 μg of 3-aminotyrosine.
Assay [4] concerns the target T1, horseradish peroxidase (Armoracia rusticana, UniProt P00433).
T1 sequence (P00433 31-338 limits assumed): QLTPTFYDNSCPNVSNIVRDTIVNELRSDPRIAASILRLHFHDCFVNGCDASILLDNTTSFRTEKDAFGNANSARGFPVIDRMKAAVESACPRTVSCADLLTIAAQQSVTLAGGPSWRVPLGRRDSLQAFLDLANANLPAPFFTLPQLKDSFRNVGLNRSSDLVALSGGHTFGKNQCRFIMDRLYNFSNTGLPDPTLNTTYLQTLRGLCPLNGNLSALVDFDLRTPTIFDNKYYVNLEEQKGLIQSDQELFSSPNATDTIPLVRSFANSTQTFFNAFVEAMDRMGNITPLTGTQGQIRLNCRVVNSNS
Nature of the assay: Inhibition of horseradish peroxidase. It counts as biochemical. The note with it: read-out: K1.

Read-outs that look alike come from different tables or passages of the source.

The values below come from patent US4870002A, “Method of prevention of oxidative injury to cells” (priority 1985, dated 1989).

What is called inhibition is the change of the read-out against control, counted positive when it falls.

Consider `Nc1cc(C[C@H](N)C(=O)O)ccc1O` [3-aminotyrosine, 3-amino-L-tyrosine], for which, in assay [1], the “presence of tumor, in words” value was “had developed tumor growth”. Besides, the “CL (30 sec)” value in assay [2] (160 μM) is on record as 5,430 ± 1,266 counts/30 sec; in assay [2] (1.44 mM) it was 844 ± 165 counts/30 sec; in assay [2] (pretreatment 11.5 mM, 30 min at room temperature) it was 22,457 ± 2,128 counts/30 sec. Moreover, the activity at 160 µM in assay [2] (Sus scrofa, Erythrocyte, 160 μM, read-out: Percent control) amounted to 18%. Also, the activity at 1440 µM in assay [2] (Sus scrofa, Erythrocyte, 1.44 mM, read-out: Percent control) turned out to be 3%. For the same compound, the activity at 11500 µM in assay [2] (Sus scrofa, Erythrocyte, pretreatment 11.5 mM, 30 min at room temperature, read-out: Percent control) is 74%. The inhibition at 160 µM in assay [2] (Sus scrofa, 160 μM, read-out: inhibition of CL of labeled RBCs) amounted to 82%. In addition, the inhibition at 1440 µM in assay [2] (Sus scrofa, 1.44 mM, read-out: inhibition of CL of labeled RBCs) is 97%; in assay [2] (Sus scrofa, 1.44 mM, read-out: inhibition of the natural CL), 94%. Also, the inhibition at 11500 µM in assay [2] (Sus scrofa, pretreatment of labeled cells with 11.5 mM, 30 min at room temperature, read-out: inhibition of CL) was found to be 26%. In addition, the “effect on the action of ICCOPS, in words” value in assay [3] (100 μg injected into ICCOPS-treated hepatoma-bearing rats) is “inhibited the action of ICCOPS”. For the same compound, in assay [3] (four rats receiving ICCOPS and 100 μg 3-aminotyrosine), the “outcome, in words” value is on record as “eventually died of the tumor”. The Ki in assay [4] stood at 5 µM.
